In ChEMBL document CHEMBL1201862, “PubChem BioAssay data set” (2004):
Calls of active or inactive are those of the source. Rule as the data show it: actives have a measured IC50 and inactives only a lower limit.

How the values were obtained:
[1] = target: DNA dC->dU-editing enzyme APOBEC-3A (Homo sapiens, UniProt P31941); test: A3A deaminase inhibition for selectivity – biochemical, dose response (AID 504722); format: functional
[2] = target: DNA dC->dU-editing enzyme APOBEC-3G (Homo sapiens, UniProt Q9HC16); test: Dose Response confirmation of small molecule APOBEC3G DNA Deaminase Inhibitors via a fluorescence-based single-stranded DNA deaminase assay. [Related pubchem assays (depositor defined):AID493012, AID493028]; format: functional
Sequence of DNA dC->dU-editing enzyme APOBEC-3G (Q9HC16 whole entry): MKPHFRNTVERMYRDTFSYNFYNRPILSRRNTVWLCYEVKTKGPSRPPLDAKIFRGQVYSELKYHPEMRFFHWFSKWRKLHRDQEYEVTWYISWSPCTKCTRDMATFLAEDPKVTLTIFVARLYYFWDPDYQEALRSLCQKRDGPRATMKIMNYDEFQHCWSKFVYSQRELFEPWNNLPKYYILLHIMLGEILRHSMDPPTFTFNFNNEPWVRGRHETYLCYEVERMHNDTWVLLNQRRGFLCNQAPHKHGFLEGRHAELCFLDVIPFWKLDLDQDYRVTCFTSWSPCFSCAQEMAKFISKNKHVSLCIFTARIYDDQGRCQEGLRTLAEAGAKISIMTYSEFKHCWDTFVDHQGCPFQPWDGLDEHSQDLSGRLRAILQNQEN

Sequence of DNA dC->dU-editing enzyme APOBEC-3A (P31941 whole entry): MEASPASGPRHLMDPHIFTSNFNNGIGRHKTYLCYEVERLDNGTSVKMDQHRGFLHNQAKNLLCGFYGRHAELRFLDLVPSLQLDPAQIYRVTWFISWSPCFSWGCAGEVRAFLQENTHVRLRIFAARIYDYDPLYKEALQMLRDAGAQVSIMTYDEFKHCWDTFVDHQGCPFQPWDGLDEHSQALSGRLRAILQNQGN

| SMILES | IC50 [1] | IC50 [2] |
| --- | --- | --- |
| C=CCn1c(-c2cccc(Cl)c2)n[nH]c1=S | > 100 µM (inactive) | 6.21 µM (active) |
| COc1cccc(/C=N/n2c(S)nnc2-c2[nH]nc3c2CCC3)c1OC | > 100 µM (inactive) | 3.45 µM (active) |
